Data on six molecules can be found in ChEMBL document CHEMBL4425115, “Discovery and Structure-Activity Relationship (SAR) of a Series of Ethanolamine-Based Direct-Acting Agonists of Sphingosine-1-phosphate (S1P1)” (J Med Chem, 2016).

A short description of data set [1]: Clearance in dog at 1 mg/kg, iv. Conditions: in vivo. Format: ADME, organism-based, Canis lupus familiaris.
A short description of data set [2]: Metabolic stability in human liver microsomes assessed as compound remaining. Format: ADME, Microsome. (In general: Liver microsomes are vesicles of endoplasmic reticulum, rich in cytochrome P450 enzymes.)
The nature of data set [3]: Metabolic stability in rat liver microsomes assessed as compound remaining. It counts as ADME, Microsome.
Data set [4] is described as follows: Metabolic stability in cynomolgus monkey liver microsomes assessed as compound remaining. It counts as ADME, Macaca fascicularis, Microsome.
The nature of data set [5]: AUC (0 to 24 hrs) in mouse at 1 mg/kg, iv or 1 mg/kg, po. Format: ADME, organism-based. The note with it: in vivo.
A short description of data set [6]: Tmax in dog at 1 mg/kg, iv or 1 mg/kg, po. Format: ADME, organism-based, Canis lupus familiaris. Conditions: in vivo.
A short description of data set [7]: Oral bioavailability in rat at 5 mg/kg. It counts as ADME, organism-based. Conditions: in vivo.
Data set [8] can be described thus: Oral bioavailability in cynomolgus monkey at 1 mg/kg. It counts as ADME, organism-based, Macaca fascicularis. Conditions: in vivo.
Data set [9] is described as follows: Half life in rat at 2 mg/kg, iv. It counts as ADME, organism-based. The note with it: in vivo.
Data set [10] can be described thus: Cmax in cynomolgus monkey plasma at 1 mg/kg, iv or 1 mg/kg, po. Format: ADME, organism-based, Macaca fascicularis.
Data set [11] in a line: Clearance in cynomolgus monkey at 1 mg/kg, iv. Format: ADME, organism-based, Macaca fascicularis. Conditions: in vivo.
Data set [12] can be described thus: Cmax in rat plasma at 2 mg/kg, iv or 5 mg/kg, po. It counts as ADME, organism-based.
A short description of data set [13]: Volume of distribution at steady state in rat at 2 mg/kg, iv or 5 mg/kg, po. It counts as ADME, organism-based. The note with it: in vivo.
Data set [14] in a line: Half life in cynomolgus monkey at 1 mg/kg, iv. Format: ADME, organism-based, Macaca fascicularis. The note with it: in vivo.
Data set [15] in a line: Half life in mouse at 1 mg/kg, iv. Format: ADME, organism-based. The note with it: in vivo.
Data set [16] is described as follows: Metabolic stability in mouse liver microsomes assessed as compound remaining. Format: ADME, Microsome.
Data set [17] can be described thus: AUC (0 to 24 hrs) in cynomolgus monkey at 1 mg/kg, iv or 1 mg/kg, po. The note with it: in vivo. It counts as ADME, organism-based, Macaca fascicularis.
Data set [18] is described as follows: Clearance in mouse at 1 mg/kg, iv. The note with it: in vivo. Format: ADME, organism-based.
The nature of data set [19]: Oral bioavailability in mouse at 1 mg/kg. It counts as ADME, organism-based. Conditions: in vivo.
The nature of data set [20]: Tmax in rat at 2 mg/kg, iv or 5 mg/kg, po. It counts as ADME, organism-based. The note with it: in vivo.
A short description of data set [21]: AUC (0 to 24 hrs) in dog at 1 mg/kg, iv or 1 mg/kg, po. The note with it: in vivo. Format: ADME, organism-based, Canis lupus familiaris.
Data set [22] is described as follows: Volume of distribution at steady state in mouse at 1 mg/kg, iv or 1 mg/kg, po. It counts as ADME, organism-based. The note with it: in vivo.
A short description of data set [23]: Volume of distribution at steady state in dog at 1 mg/kg, iv or 1 mg/kg, po. Conditions: in vivo. It counts as ADME, organism-based, Canis lupus familiaris.
The nature of data set [24]: Tmax in cynomolgus monkey at 1 mg/kg, iv or 1 mg/kg, po. Format: ADME, organism-based, Macaca fascicularis. The note with it: in vivo.
Data set [25] is described as follows: Metabolic stability in dog liver microsomes assessed as compound remaining. Format: ADME, Canis lupus familiaris, Microsome.
A short description of data set [26]: Volume of distribution at steady state in cynomolgus monkey at 1 mg/kg, iv or 1 mg/kg, po. Format: ADME, organism-based, Macaca fascicularis. The note with it: in vivo.
The nature of data set [27]: Cmax in mouse plasma at 1 mg/kg, iv or 1 mg/kg, po. It counts as ADME, organism-based.
Data set [28] can be described thus: Half life in dog at 1 mg/kg, iv. Format: ADME, organism-based, Canis lupus familiaris. Conditions: in vivo.
Data set [29] can be described thus: Cmax in dog plasma at 1 mg/kg, iv or 1 mg/kg, po. Format: ADME, organism-based, Canis lupus familiaris.
Data set [30] can be described thus: AUC (0 to 24 hrs) in rat at 2 mg/kg, iv or 5 mg/kg, po. It counts as ADME, organism-based. The note with it: in vivo.
Data set [31] in a line: Tmax in mouse at 1 mg/kg, iv or 1 mg/kg, po. It counts as ADME, organism-based. The note with it: in vivo.
Data set [32] can be described thus: Clearance in rat at 2 mg/kg, iv. Format: ADME, organism-based. The note with it: in vivo.
Data set [33] in a line: Oral bioavailability in dog at 1 mg/kg. Format: ADME, organism-based, Canis lupus familiaris. The note with it: in vivo.
The nature of data set [34]: Lipophilicity, log D of the compound at pH 6.5. Format: physicochemical. The note with it: buffer.
A short description of data set [35]: Aqueous solubility of the compound at pH 1. It counts as physicochemical.
Data set [36] is described as follows: Volume of distribution at steady state in dog at 0.5 mg/kg, iv or 0.5 mg/kg, po. It counts as ADME, organism-based, Canis lupus familiaris. Conditions: in vivo.
The nature of data set [37]: Dissociation constant, pKa of the compound. It counts as physicochemical.
Data set [38] in a line: Clearance in dog at 0.5 mg/kg, iv. Format: ADME, organism-based, Canis lupus familiaris. The note with it: in vivo.
Data set [39] in a line: Oral bioavailability in dog at 0.5 mg/kg. It counts as ADME, organism-based, Canis lupus familiaris. The note with it: in vivo.
A short description of data set [40]: Tmax in dog at 0.5 mg/kg, iv or 0.5 mg/kg, po. It counts as ADME, organism-based, Canis lupus familiaris. The note with it: in vivo.
Data set [41] in a line: Permeability of the compound at pH 7.4 by PAMPA assay. It counts as ADME. Conditions: read-out: permeability. (In general: The PAMPA barrier holds no transporters, so it reflects passive diffusion.)
A short description of data set [42]: AUC (0 to 24 hrs) in dog at 0.5 mg/kg, iv or 0.5 mg/kg, po. Conditions: in vivo. Format: ADME, organism-based, Canis lupus familiaris.
The nature of data set [43]: Half life in dog at 0.5 mg/kg, iv. It counts as ADME, organism-based, Canis lupus familiaris. Conditions: in vivo.
Data set [44] is described as follows: Cmax in dog plasma at 0.5 mg/kg, iv or 0.5 mg/kg, po. Format: ADME, organism-based, Canis lupus familiaris.
Data set [45] in a line: Aqueous solubility of the compound at pH 6.5. It counts as physicochemical.
Data set [46] can be described thus: Plasma concentration in Lewis rat at 10 mg/kg, po measured after 4 hrs. It counts as ADME, organism-based.
Data set [47] is described as follows: Plasma concentration in Lewis rat at 10 mg/kg, po measured after 24 hrs. Format: ADME, organism-based.
The next data set can be described thus: in vivo. The note with it: Lewis, rat, plasma, po, 30 mg/kg.
Data set [48] in a line: Plasma concentration in Lewis rat at 3 mg/kg, po measured after 4 hrs. It counts as ADME, organism-based.
The nature of data set [49]: Plasma concentration in Lewis rat at 3 mg/kg, po measured after 24 hrs. Format: ADME, organism-based.
Data set [50] is described as follows: Half life in human administered as single dose. It counts as ADME.

In brackets after ≈: the same amount, converted by molar mass. Where only a bound is given, the exact number is not on record here.

For `O=C(O)[C@H]1CCCN(C[C@@H](O)c2ccc(-c3noc(-c4onc(-c5ccccc5)c4C(F)(F)F)n3)cc2)C1`, the CL in [1] was found to be 1400 mL/min/kg; in data set [11] it was 700 mL/min/kg; in [18], 100 mL/min/kg; in data set [32] it was 1700 mL/min/kg. Further, the Stability in data set [2], in data set [3], in [4], in [16] and in data set [25] was over 98% each time. The AUC(0-t) was determined as 362 µM·h in [5], 17 µM·h in data set [17], 1.3 µM·h in data set [21] and 60 µM·h in [30]. The Tmax in data set [6] came out at 0.8 h; in [20], 3.3 h; in data set [24] it was 4 h; in data set [31], 1 h. Further, the bioavailability in [7] came out at 76%; in data set [8], 88%; in [19] it was 66%; in data set [33], 74%. The t1/2 was determined as 9 h in data set [9], 33 h in data set [14], 15 h in [15] and 12 h in [28]. Moreover, the Cmax in data set [10] was 1100 nM; in data set [12], 5300 nM; in data set [27], 45000 nM; in data set [29], 840 nM. In addition, the Vdss in data set [13] was determined as 1.2 L/kg; in data set [22], 0.1 L/kg; in [23], 1.4 L/kg; in [26] it was 1.8 L/kg.
In the case of `O=C(O)C[C@H]1CCCN(C[C@@H](O)c2ccc(-c3noc(-c4onc(-c5ccccc5)c4C(F)(F)F)n3)cc2)C1`, in data set [34], the logD was 3.94. For the same molecule, the values for the solubility in [35] and in [45] were over 850 µg/mL and 229 µg/mL (≈ 422 µM), respectively. The Vdss in data set [36] amounted to 1.8 L/kg; in [13] it was 2.2 L/kg; in data set [22], 0.2 L/kg; in [26], 1.1 L/kg. In addition, the Stability in data set [2], in [3], in data set [4], in data set [16] and in data set [25] was over 98% throughout. The AUC(0-t) in data set [5] turned out to be 315 µM·h; in data set [17], 26 µM·h; in [42], 7.8 µM·h; in [30], 66 µM·h. The molecule also had a pKa in [37] of 8.8. Moreover, the bioavailability in data set [7] was determined as 87%; in data set [8], 90%; in data set [39] it was 90%; in [19], 62%. For the same molecule, the t1/2 amounted to 28 h in [9], 27 h in [14], 23 h in data set [15] and 24 h in data set [43]. In addition, the Cmax worked out at 1500 nM in [10], 4700 nM in data set [12], 44000 nM in [27] and 489000 nM in data set [44]. Moreover, the CL in data set [11] stood at 500 mL/min/kg; in [38], 1300 mL/min/kg; in [18] it was 100 mL/min/kg; in data set [32], 1000 mL/min/kg. The Tmax in data set [40] is 4 h; in [20], 3.7 h; in data set [24], 10 h; in data set [31], 0.5 h. The Papp in [41] was 29.5 ×10⁻⁶ cm/s.
In data set [46], `CCCc1c(-c2nc(-c3ccc(C(O)CN4CCC[C@H](C(=O)O)C4)cc3)no2)noc1-c1ccccc1` (some centres not stated) came in with a concentration at 4 h of 1600 nM. Moreover, the concentration at 24 h in data set [47] was 38 nM.
For the molecule `CCCc1c(-c2nc(-c3ccc(C(O)CNCCC(=O)O)cc3)no2)noc1-c1ccccc1` (configuration not stated), the concentration at 4 h in the data set “in vivo” was found to be 142 nM.
`CCCc1c(-c2nc(-c3ccc(C(O)CN4CCC[C@H](CC(=O)O)C4)cc3)no2)noc1-c1ccccc1` (some centres not stated): in data set [48], the concentration at 4 h worked out at 685 nM. In data set [49], this molecule registered a concentration at 24 h of 40 nM.
The molecule `CCCCCCCCc1ccc(CCC(N)(CO)CO)cc1` [FINGOLIMOD] gave a half-life in data set [50] of 144 to 216 h.

The term AUC(0-t) denotes the area under the concentration-time curve up to a stated or last time point. The term Tmax denotes the time at which the peak concentration occurs. By bioavailability is commonly meant the share of a dose that reaches the circulation, judged against a reference dose that is usually intravenous. As a reminder, the Cmax is the peak of the concentration-time curve. As usually defined, the logD is lipophilicity at a set pH, counting ionised and neutral species. As a reminder, the solubility is the concentration that dissolves in the medium under given conditions. As a reminder, the pKa is the negative logarithm of the acid dissociation constant. The term half-life denotes the time needed for the level to fall by half in the phase considered.
